Tests used:
[1] = tested on: L02; assay: Cytotoxicity against human L02 cells assessed as cell growth inhibition; type: functional, cell-based
[2] = tested on: MGC-803; assay: Cytotoxicity against human MGC-803 cells assessed as cell growth inhibition; type: functional, cell-based
[3] = target: Adenosylhomocysteinase (Homo sapiens, UniProt P23526); assay: Inhibition of SAH hydrolase (unknown origin)
[4] = tested on: MCF7; assay: Cytotoxicity against human MCF7 cells assessed as cell growth inhibition; type: functional, cell-based
[5] = tested on: A549; assay: Cytotoxicity against human A549 cells assessed as cell growth inhibition; type: functional, cell-based
[6] = tested on: HeLa; assay: Cytotoxicity against human HeLa cells assessed as cell growth inhibition; type: functional, cell-based
[7] = tested on: Vesicular stomatitis virus; assay: Antiviral activity against Vesicular stomatitis virus assessed as viral growth inhibition; type: functional, organism-based
[8] = Cytotoxicity against African green monkey Vero cells assessed as cell growth inhibition; type: toxicity, cell-based; details: chlorocebus sabaeus
[9] = tested on: Respiratory syncytial virus; assay: Antiviral activity against Respiratory syncytial virus assessed as viral growth inhibition; type: functional, organism-based; details: human respiratory syncytial virus
[10] = Selectivity index, ratio of CC50 for cytotoxicity against African green monkey Vero cells to EC50 for antiviral activity against Vesicular stomatitis virus; type: toxicity, cell-based; details: read-out: Ratio CC50/EC50
[11] = Selectivity index, ratio of CC50 for cytotoxicity against African green monkey Vero cells to EC50 for antiviral activity against Respiratory syncytial virus; type: toxicity, cell-based; details: read-out: Ratio CC50/EC50

Sequence of Adenosylhomocysteinase (P23526 whole entry): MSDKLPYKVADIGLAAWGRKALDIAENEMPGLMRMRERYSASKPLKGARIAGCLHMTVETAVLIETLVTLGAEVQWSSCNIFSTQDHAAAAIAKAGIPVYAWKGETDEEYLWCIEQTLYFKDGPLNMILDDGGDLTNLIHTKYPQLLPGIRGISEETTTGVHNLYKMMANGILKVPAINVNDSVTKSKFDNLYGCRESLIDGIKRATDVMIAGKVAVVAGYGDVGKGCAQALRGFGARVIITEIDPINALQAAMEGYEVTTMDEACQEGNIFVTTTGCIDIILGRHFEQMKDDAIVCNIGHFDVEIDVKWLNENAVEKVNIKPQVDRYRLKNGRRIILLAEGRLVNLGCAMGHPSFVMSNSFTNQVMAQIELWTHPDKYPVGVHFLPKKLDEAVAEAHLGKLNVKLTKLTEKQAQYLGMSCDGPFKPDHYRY

Compound	IC50 [1]	IC50 [2]	IC50 [3]	IC50 [4]	IC50 [5]	IC50 [6]	EC50 [7]	CC50 [8]	EC50 [9]	selectivity ratio [10]	selectivity ratio [11]
Nc1nccc2c1ncn2[C@@H]1O[C@H](CO)[C@@H](O)[C@H]1O	94.4 µM	41.1 µM	5.39 µM	40.3 µM	57.4 µM						
CCNCCNC(=O)CC(CC(=O)NC1Cc2ccccc2C1)c1ccccc1 (stereo not given)	> 100 µM	> 100 µM		> 100 µM	> 100 µM	> 100 µM					
CCNCCNC(=O)CC(CC(=O)N(CC)C1Cc2ccccc2C1)c1ccccc1 (stereo not given)	> 100 µM	> 100 µM	3.48 µM	> 100 µM	> 100 µM	> 100 µM					
CCN(CC)CCNC(=O)CC(CC(=O)NC1Cc2ccccc2C1)c1ccc(Cl)cc1 (stereo not given)	76.7 µM	> 100 µM	3.68 µM	75 µM	48.6 µM	50.5 µM					
O=C(CC(CC(=O)NC1Cc2ccccc2C1)c1ccc(Cl)cc1)NCCN1CCCCC1 (stereo not given)	70.4 µM	89.1 µM		35.5 µM	28 µM	86.2 µM					
CN(C(=O)CC(CC(=O)NCCN1CCCC1)c1ccccc1)C1Cc2ccccc2C1 (stereo not given)	> 100 µM	> 100 µM		> 100 µM	> 100 µM	> 100 µM					
CCNCCNC(=O)CC(CC(=O)N(CC)C1Cc2ccccc2C1)c1ccc(Cl)cc1 (stereo not given)	66.2 µM	43.8 µM	3.78 µM	14.4 µM	19.4 µM	40.5 µM	> 100 µM	144 µM	> 100 µM		
CCN(CC)CCNC(=O)CC(CC(=O)NC1Cc2ccccc2C1)c1ccccc1 (stereo not given)	> 100 µM	> 100 µM		> 100 µM	82.4 µM	> 100 µM					
CCN(C(=O)CC(CC(=O)NCCN1CCCC1)c1ccccc1)C1Cc2ccccc2C1 (stereo not given)	> 100 µM	> 100 µM		> 100 µM	> 100 µM	> 100 µM					
Cc1ccc(C(CC(=O)NCCN2CCCCC2)CC(=O)NC2Cc3ccccc3C2)cc1 (stereo not given)	> 100 µM	> 100 µM		> 100 µM	> 100 µM	> 100 µM					
CCN(C(=O)CC(CC(=O)NCCN1CCCC1)c1ccc(Cl)cc1)C1Cc2ccccc2C1 (stereo not given)	54.2 µM	55.5 µM		20.4 µM	22.6 µM	36.4 µM					
CCN(C(=O)CC(CC(=O)NCCN1CCCCC1)c1ccccc1)C1Cc2ccccc2C1 (stereo not given)	> 100 µM	> 100 µM		> 100 µM	84.5 µM	> 100 µM					
O=C(CC(CC(=O)NC1Cc2ccccc2C1)c1ccccc1)NCCN1CCCCC1 (stereo not given)	> 100 µM	> 100 µM		> 100 µM	> 100 µM	> 100 µM					
CN(C(=O)CC(CC(=O)NCCN1CCCC1)c1ccc(Cl)cc1)C1Cc2ccccc2C1 (stereo not given)	81.5 µM	83.8 µM		76.7 µM	56 µM	55.4 µM					
CCN(CC)CCNC(=O)CC(CC(=O)N(C)C1Cc2ccccc2C1)c1ccc(Cl)cc1 (stereo not given)	56.5 µM	81.2 µM		28.8 µM	21.4 µM	48.1 µM					
O=C(CC(CC(=O)NC1Cc2ccccc2C1)c1ccccc1)NCCN1CCCC1 (stereo not given)	> 100 µM	> 100 µM		> 100 µM	> 100 µM	> 100 µM					
CCNCCNC(=O)CC(CC(=O)NC1Cc2ccccc2C1)c1ccc(Cl)cc1 (stereo not given)	83.7 µM	> 100 µM		> 100 µM	52 µM	68.4 µM					
CCN(CC)CCNC(=O)CC(CC(=O)N(CC)C1Cc2ccccc2C1)c1ccc(Cl)cc1 (stereo not given)	78.4 µM	44.9 µM	3.72 µM	23 µM	18.4 µM	24.3 µM	38.9 µM	91.8 µM	91.1 µM	2.36	1.01
CNCCNC(=O)CC(CC(=O)NC1Cc2ccccc2C1)c1ccc(Cl)cc1 (stereo not given)	> 100 µM	> 100 µM		> 100 µM	> 100 µM	> 100 µM					
CCN(C(=O)CC(CC(=O)NCCN1CCCCC1)c1ccc(Cl)cc1)C1Cc2ccccc2C1 (stereo not given)	84.2 µM	21.2 µM	3.58 µM	16.5 µM	13.2 µM	20.4 µM	> 100 µM	187 µM	27.4 µM		6.84
CCN(CC)CCNC(=O)CC(CC(=O)N(C)C1Cc2ccccc2C1)c1ccccc1 (stereo not given)	> 100 µM	> 100 µM		> 100 µM	> 100 µM	> 100 µM					
O=C(CC(CC(=O)NC1Cc2ccccc2C1)c1ccc(Cl)cc1)NCCN1CCCC1 (stereo not given)	89.4 µM	> 100 µM		> 100 µM	50.9 µM	77.3 µM					
O=c1[nH]cc(F)c(=O)[nH]1 [FLUOROURACIL]	46.5 µM	38.5 µM		48.5 µM							

Source: ChEMBL document CHEMBL5113484, “Synthesis and biological evaluation of novel pentanediamide derivatives as S-adenosyl-l-homocysteine hydrolase inhibitors” (Bioorg Med Chem Lett, 2022)
